Results reported in patent US12649750B2, “Macrocyclic compounds, compositions, and methods of using thereof” (Sionna Therapeutics Inc., priority 2022, dated 2026).

Key:
[1] = target: T1, CFTR (Homo sapiens, UniProt P13569, DEL508-508); assay: TECC24 AUC fold over DMSO @10 μM, CFTR-mediated transepithelial chloride transport in CF-HBE cells; type: cell-based; conditions: test agent AUC divided by DMSO vehicle AUC, primary CF-HBE cells, ΔF508 homozygous donor, 48 hours incubation
T1 construct: Primary human bronchial epithelial cells from a ΔF508 homozygous CF donor; host or cells: primary human bronchial epithelial cells (CF-HBE), ΔF508 homozygous donor
T1 sequence (P13569 with tags, fused parts or gaps DEL508-508): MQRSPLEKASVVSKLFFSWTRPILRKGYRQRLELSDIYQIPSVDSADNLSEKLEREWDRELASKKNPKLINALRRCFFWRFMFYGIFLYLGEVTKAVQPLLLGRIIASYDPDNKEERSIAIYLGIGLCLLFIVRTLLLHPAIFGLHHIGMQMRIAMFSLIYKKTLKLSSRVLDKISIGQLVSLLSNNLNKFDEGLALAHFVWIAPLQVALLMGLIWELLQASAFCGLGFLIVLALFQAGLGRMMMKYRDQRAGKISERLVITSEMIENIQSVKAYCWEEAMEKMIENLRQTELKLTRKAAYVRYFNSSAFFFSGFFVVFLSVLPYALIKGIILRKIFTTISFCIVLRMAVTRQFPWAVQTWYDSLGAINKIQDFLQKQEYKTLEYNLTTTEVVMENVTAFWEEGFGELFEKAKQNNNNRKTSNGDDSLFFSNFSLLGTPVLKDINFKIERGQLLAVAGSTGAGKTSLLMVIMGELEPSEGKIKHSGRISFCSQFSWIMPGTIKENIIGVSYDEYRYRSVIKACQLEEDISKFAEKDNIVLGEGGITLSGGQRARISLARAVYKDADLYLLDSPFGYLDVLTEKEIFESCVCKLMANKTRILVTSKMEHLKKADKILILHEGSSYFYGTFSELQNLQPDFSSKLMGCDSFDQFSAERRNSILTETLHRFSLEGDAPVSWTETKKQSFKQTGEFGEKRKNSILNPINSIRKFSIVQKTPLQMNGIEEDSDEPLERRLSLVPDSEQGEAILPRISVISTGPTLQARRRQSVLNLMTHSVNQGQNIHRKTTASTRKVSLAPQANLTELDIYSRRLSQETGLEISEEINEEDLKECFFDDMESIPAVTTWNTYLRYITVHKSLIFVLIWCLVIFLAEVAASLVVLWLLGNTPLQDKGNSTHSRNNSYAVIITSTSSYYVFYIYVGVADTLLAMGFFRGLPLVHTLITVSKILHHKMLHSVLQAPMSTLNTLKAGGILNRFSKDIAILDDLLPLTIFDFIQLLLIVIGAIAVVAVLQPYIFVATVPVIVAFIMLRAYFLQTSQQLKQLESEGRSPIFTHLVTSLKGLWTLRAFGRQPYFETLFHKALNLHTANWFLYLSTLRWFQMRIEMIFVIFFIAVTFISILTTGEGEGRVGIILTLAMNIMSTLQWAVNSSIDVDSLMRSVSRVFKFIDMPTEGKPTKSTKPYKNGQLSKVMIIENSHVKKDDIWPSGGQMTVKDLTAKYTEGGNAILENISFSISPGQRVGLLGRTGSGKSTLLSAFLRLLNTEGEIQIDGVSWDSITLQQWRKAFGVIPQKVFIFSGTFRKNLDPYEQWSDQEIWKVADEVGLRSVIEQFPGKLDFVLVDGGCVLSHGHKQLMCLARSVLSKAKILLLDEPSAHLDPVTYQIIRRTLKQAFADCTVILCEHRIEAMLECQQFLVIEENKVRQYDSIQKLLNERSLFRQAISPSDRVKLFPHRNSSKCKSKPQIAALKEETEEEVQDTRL
Method in brief: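 Primary ΔF508-homozygous CF bronchial epithelial cells on inserts were incubated 48 h at 36.5 °C with compound in IL-13-containing medium. VT and TEER were then recorded in current-clamp mode (pH 7.4 HEPES bath) with benzamil 10 μM, forskolin 10 μM, then CFTR inhibitor-172 20 μM. The IEQ AUC between forskolin and inhibitor was divided by vehicle AUC.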

[2] = target: T2, NBD1 (Homo sapiens, UniProt P13569); assay: Aggregation analysis using differential static light scattering (DSLS), thermal stability of NBD1 (ΔTagg); type: binding; conditions: ΔTagg versus DMSO control, NBD1 0.2 mg/ml
T2 construct: Purified recombinant NBD1 was produced using previously described methods; made in house
T2 sequence (P13569 423-646 limits assumed): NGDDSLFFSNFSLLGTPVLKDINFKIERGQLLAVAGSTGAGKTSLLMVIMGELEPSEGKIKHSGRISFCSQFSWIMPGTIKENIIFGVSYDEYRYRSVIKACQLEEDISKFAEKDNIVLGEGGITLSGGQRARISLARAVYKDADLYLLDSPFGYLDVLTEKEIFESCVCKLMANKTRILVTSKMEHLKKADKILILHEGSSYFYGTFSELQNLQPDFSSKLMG
Method in brief: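 Read-out is ΔTagg: the aggregation temperature, taken at the inflection of the light-scattering curve, less the average of DMSO control wells. Recombinant NBD1 (0.2 mg/ml, pH7.6 buffer containing 2 mM ATP) with test compound was heated at 1° C. per minute up to 70° C.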

Row | Structure (SMILES) | TECC (AUC, 10 μM) [1] | DSLS 3D (100 μM ΔT) [2]
1 | CC1(c2cccc(CCC(=O)O)c2)CCCC2(CC2)CS(=O)(=O)CCc2c(c(F)cc3[nH]ccc23)Oc2ccc(F)c(c2)-c2ncc1[nH]2 (single isomer, unassigned) [Compound 45A, 3-[3-(22,28-difluoro-6-methyl-12,12-dioxo-spiro [24-oxa-12lambda6-thia-3,19,30-triazapentacyclo[23.3.1.12, 5.015,23.016,20]triaconta-1(29),2,4,15,17,20,22,25,27-nonaene-10,1′-cyclopropane]-6-yl)phenyl]propanoic acid] | A (a TECC value less than 12 is marked “A”) | A (an ΔTagg value less than or equal to 5 °C is marked “A”)
2 | Cn1nc2nc1-c1cc(ccc1F)Oc1c(F)cc3[nH]ccc3c1CCS(=O)(=O)CC(C)(C)CCCC2(C)c1cccc(CC(C)(C)C(=O)O)c1 (single isomer, unassigned) [Compound 29A, 3-[3-(22,28-Difluoro-3,6,10,10-tetramethyl-12,12-dioxo-24-oxa-12lambda6-thia-3,4,19,30-tetrazapentacyclo[23.3.1.12,5.015,23.016,20]triaconta-1(29),2(30),4,15,17,20,22,25,27-nonaen-6-yl)phenyl]-2,2-dimethyl-propanoic acid] | C (a value between 20 and 80 is marked “C”) | C (a value greater than 10 °C and less than or equal to 25 °C is marked “C”)
3 | Cn1nc2nc1-c1cc(ccn1)[S+]([O-])c1c(F)cc3[nH]ccc3c1CCS(=O)(=O)CC(C)(C)CCC[C@]2(C)c1cccc(CC(=O)O)c1 (single isomer, unassigned) [Compound 249A] | C (a value between 20 and 80 is marked “C”) | C (a value greater than 10 °C and less than or equal to 25 °C is marked “C”)
4 | Cn1nc2nc1-c1cc(ccc1F)Cc1c(F)cc3[nH]ccc3c1CCS(=O)(=O)CC(C)(C)CCCC2(C)c1cccc(CCC(=O)O)c1 (single isomer, unassigned) [Compound 32B, 3-[3-(22,28-Difluoro-3,6,10,10-tetramethyl-12,12-dioxo-12lambda6-thia-3,4,19,30-tetrazapentacyclo[23.3.1.12,5.015,23.016,20]triaconta-1(29),2(30),4,15,17,20,22,25,27-nonaen-6-yl)phenyl]propanoic Acid] | C (a value between 20 and 80 is marked “C”) | C (a value greater than 10 °C and less than or equal to 25 °C is marked “C”)
5 | Cn1nc2nc1-c1cc(ccc1F)Oc1c(F)cc3[nH]ccc3c1CCS(=O)(=O)CC(F)(F)C(C)(C)CCC2(C)c1cccc(CCC(=O)O)c1 (single isomer, unassigned) [Compound 102B, 3-[3-[10,10,22,28-tetrafluoro-3,6,9,9-tetramethyl-12,12-dioxo-24-oxa-12lambda6-thia-3,4,19,30-tetrazapentacyclo[23.3.1.12,5.015,23.016,20]triaconta-1(29),2(30),4,15,17,20,22,25,27-nonaen-6-yl]phenyl]propanoic acid] | B (a value between 12-20 is marked “B”) | B (a value above 5 °C and less than or equal to 10 °C is marked “B”)
6 | CC1(C)CCCC(C)(c2cccc(OCC(=O)O)c2)c2cnc([nH]2)-c2cc(ccc2F)Oc2c(F)cc3[nH]ccc3c2CCS(=O)(=O)C1 (single isomer, unassigned) [Compound 54A, 2-[3-(22,28-difluoro-6,10,10-trimethyl-12,12-dioxo-24-oxa-12lambda6-thia-3,19,30-triazapentacyclo[23.3.1.12,5.015,23.016,20]triaconta-1(29),2,4,15,17,20,22,25,27-nonaen-6-yl)phenoxy]acetic acid] | C (a value between 20 and 80 is marked “C”) | C (a value greater than 10 °C and less than or equal to 25 °C is marked “C”)
7 | C[C@@H](Cc1cccc([C@@]2(C)CCCC(C)(C)CS(=O)(=O)CCc3c(c(F)c(F)c4[nH]ccc34)[S+]([O-])c3ccnc(c3)-c3nc2nn3C)c1)C(=O)O (stereo partly drawn) [Compound 267, (2S)-3-[3-[(6R)-21,22-Difluoro-3,6,10,10-tetramethyl-12,12,24-trioxo-12λ6,24λ4-dithia-3,4,19,28,30-pentazapentacyclo[23.3.1.12,5.015,23.016,20]triaconta-1(29),2(30),4,15,17,20,22,25,27-nonaen-6-yl]phenyl]-2-methyl-propanoic Acid] | C (a value between 20 and 80 is marked “C”) | C (a value greater than 10 °C and less than or equal to 25 °C is marked “C”)
8 | CNC(=O)[C@@H](C)Cc1cccc(C2(C)CCCC(C)(C)CS(=O)(=O)CCc3c(c(F)cc4[nH]ccc34)Oc3ccc(F)c(c3)-c3nc2nn3C)c1 (single isomer, unassigned) [Compound 149] | A (a TECC value less than 12 is marked “A”) | C (a value greater than 10 °C and less than or equal to 25 °C is marked “C”)
9 | C/C(=C\c1cccc(C2(C)CCCC(C)(C)CS(=O)(=O)CCc3c(c(F)cc4[nH]ccc34)Cc3ccc(F)c(c3)-c3nc2nn3C)c1)C(=O)O (single isomer, unassigned) [Compound 166A, (E)-3-[3-(22,28-difluoro-3,6,10,10-tetramethyl-12,12-dioxo-12λ6-thia-3,4,19,30-tetrazapentacyclo-[23.3.1.12,5.015,23.016,20]triaconta-1(29),2(30),4,15,17,20,22,25,27-nonaen-6-yl)phenyl]-2-methyl-prop-2-enoic Acid] | B (a value between 12-20 is marked “B”) | C (a value greater than 10 °C and less than or equal to 25 °C is marked “C”)
10 | Cn1nc2nc1-c1cc(ccn1)C(=O)c1c(F)cc3[nH]ccc3c1CCS(=O)(=O)CC(C)(C)CCC[C@]2(C)c1cccc(CCC(=O)O)c1 [Compound 238, 3-[3-[(6R)-22-fluoro-3,6,10,10-tetramethyl-12,12,24-trioxo-12λ6-thia-3,4,19,28,30-pentazapentacyclo[23.3.1.12,5.015,23.016,20]triaconta-1(29),2(30),4,15,17,20,22,25,27-nonaen-6-yl]phenyl]propanoic acid] | A (a TECC value less than 12 is marked “A”) | C (a value greater than 10 °C and less than or equal to 25 °C is marked “C”)
11 | CC1(C)CCCC(c2cccc(CCC(=O)O)c2)n2cc(C#N)c(n2)-c2cc(ccc2F)Oc2c(F)cc3[nH]ccc3c2CCS(=O)(=O)C1 (single isomer, unassigned) [Compound 22B, 3-[3-[3-cyano-22,28-difluoro-10,10-dimethyl-12,12-dioxo-24-oxa-12lambda6-thia-5,19,30-triazapentacyclo[23.3.1.12,5.015,23.016,20]triaconta-1(29),2(30),3,15,17,20,22,25,27-nonaen-6-yl]phenyl]propanoic acid] | B (a value between 12-20 is marked “B”) | A (an ΔTagg value less than or equal to 5 °C is marked “A”)
12 | COCC(Cc1cccc(C2(C)CCCC(C)(C)CS(=O)(=O)CCc3c(c(F)cc4[nH]ccc34)Oc3ccc(F)c(c3)-c3nc2nn3C)c1)C(=O)O (single isomer, unassigned) [Compound 153B, 2-[[3-(22,28-difluoro-3,6,10,10-tetramethyl-12,12-dioxo-24-oxa-12λ6-thia-3,4,19,30-tetrazapentacyclo[23.3.1.12,5.015,23.016,20]triaconta-1(29),2(30),4,15,17,20,22,25,27-nonaen-6-yl)phenyl]methyl]-3-methoxy-propanoic Acid] | C (a value between 20 and 80 is marked “C”) | A (an ΔTagg value less than or equal to 5 °C is marked “A”)
13 | CC1(C)CCCCC(C)(c2cccc(CCC(=O)O)c2)c2cnc([nH]2)-c2cc(ccc2F)Oc2c(F)cc3[nH]ccc3c2CCS(=O)(=O)C1 (single isomer, unassigned) [Compound 43A, 3-[3-(23,29-difluoro-6,11,11-trimethyl-13,13-dioxo-25-oxa-13lambda6-thia-3,20,31-triazapentacyclo[24.3.1.12,5.016,24.017,21]hentriaconta-1(30),2,4,16,18,21,23,26,28-nonaen-6-yl)phenyl]propanoic Acid] | A (a TECC value less than 12 is marked “A”) | A (an ΔTagg value less than or equal to 5 °C is marked “A”)
14 | Cn1nc2nc1-c1cc(ccn1)[S+]([O-])c1c(F)c(F)c3[nH]ccc3c1CCS(=O)(=O)CC(C)(C)CCC[C@]2(C)c1cccc(CCC(=O)O)c1 (single isomer, unassigned) [Compound 281] | C (a value between 20 and 80 is marked “C”) | C (a value greater than 10 °C and less than or equal to 25 °C is marked “C”)
